Patent US20250154109A1, “SODIUM CHANNEL BLOCKING COMPOUNDS, DERIVATIVES THEREOF, AND METHODS OF THEIR USE” (LATIGO BIOTHERAPEUTICS, INC, priority 2022, published 2025)
pIC50: −log10 of the molar value. Like-named read-outs stand apart in the source and are kept apart here.

Molecular target: human Nav1.8 (Homo sapiens, UniProt Q9Y5Y9)
Test: SyncroPatch384PE assay (automated patch clamp)
Type: cell-based
Conditions: human Nav1.8/b3 CHO cells
[1] = inactivated state block (P2 measurement), read-out: P2 IC50
[2] = resting state block (P1 measurement), read-out: P1 IC50

Sequence of human Nav1.8 (Q9Y5Y9 whole entry): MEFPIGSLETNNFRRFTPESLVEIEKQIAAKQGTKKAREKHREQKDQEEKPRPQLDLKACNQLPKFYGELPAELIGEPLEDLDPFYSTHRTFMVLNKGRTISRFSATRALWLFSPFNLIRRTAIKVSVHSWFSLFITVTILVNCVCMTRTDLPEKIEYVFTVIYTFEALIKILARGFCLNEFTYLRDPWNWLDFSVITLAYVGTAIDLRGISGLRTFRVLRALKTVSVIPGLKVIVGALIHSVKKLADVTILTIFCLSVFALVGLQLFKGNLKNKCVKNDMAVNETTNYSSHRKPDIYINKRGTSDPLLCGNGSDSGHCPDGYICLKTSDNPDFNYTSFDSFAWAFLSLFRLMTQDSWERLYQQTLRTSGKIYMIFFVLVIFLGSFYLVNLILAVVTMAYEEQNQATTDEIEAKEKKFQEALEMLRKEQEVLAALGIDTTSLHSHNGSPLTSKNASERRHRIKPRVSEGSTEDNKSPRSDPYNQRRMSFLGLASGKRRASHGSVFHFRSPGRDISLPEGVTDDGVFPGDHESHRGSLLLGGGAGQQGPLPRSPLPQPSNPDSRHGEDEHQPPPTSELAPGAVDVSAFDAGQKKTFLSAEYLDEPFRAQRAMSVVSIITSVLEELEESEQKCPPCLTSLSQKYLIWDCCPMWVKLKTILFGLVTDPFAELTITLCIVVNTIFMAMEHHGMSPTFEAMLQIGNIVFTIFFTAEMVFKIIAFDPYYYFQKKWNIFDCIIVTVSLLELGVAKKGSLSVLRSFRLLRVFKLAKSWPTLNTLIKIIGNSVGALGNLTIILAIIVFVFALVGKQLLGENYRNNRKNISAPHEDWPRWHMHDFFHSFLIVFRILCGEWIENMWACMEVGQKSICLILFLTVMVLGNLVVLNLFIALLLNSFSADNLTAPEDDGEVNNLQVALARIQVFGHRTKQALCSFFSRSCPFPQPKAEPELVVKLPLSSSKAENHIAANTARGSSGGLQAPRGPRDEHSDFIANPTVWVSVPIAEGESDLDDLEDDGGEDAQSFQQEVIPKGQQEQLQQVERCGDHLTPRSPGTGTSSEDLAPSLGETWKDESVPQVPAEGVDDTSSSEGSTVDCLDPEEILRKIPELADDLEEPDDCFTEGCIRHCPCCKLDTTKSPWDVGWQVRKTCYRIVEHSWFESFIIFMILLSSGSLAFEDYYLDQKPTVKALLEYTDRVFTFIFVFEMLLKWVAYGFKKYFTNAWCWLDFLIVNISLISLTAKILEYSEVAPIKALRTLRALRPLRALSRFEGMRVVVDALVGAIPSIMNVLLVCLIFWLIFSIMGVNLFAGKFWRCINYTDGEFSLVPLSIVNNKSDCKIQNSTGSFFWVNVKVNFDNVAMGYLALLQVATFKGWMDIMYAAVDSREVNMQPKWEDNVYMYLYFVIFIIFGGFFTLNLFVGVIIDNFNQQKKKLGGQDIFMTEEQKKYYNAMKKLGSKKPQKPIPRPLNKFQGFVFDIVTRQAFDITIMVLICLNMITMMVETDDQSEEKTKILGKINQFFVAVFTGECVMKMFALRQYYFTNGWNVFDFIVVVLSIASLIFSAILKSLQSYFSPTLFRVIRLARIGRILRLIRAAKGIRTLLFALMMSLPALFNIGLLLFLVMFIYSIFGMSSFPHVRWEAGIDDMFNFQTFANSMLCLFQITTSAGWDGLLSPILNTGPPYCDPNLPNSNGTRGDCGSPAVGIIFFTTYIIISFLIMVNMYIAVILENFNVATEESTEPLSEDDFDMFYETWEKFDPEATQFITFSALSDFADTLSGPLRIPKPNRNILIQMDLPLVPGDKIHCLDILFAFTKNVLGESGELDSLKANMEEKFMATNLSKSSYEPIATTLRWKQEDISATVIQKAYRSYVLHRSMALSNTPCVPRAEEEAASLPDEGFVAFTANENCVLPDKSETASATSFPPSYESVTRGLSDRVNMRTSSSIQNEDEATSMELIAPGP

## Cc1c(C#N)cnc(N2CCCC(F)(F)CC2)c1C(=O)Nc1cccc([S@](C)(=N)=O)c1 [Example 125, (R)-5-cyano-2-(4,4-difluoroazepan-1-yl)-4-methyl-N-(3-(S-methylsulfonimidoyl)phenyl)nicotinamide]
[1]
  pIC50: 7.30 to 8.30
[2]
  pIC50: 7.30 to 8.30

## Cc1c(-c2cnco2)cnc(N2CCCC(F)(F)CC2)c1C(=O)Nc1cccc([S@](C)(=N)=O)c1 [Example 147, (R)-2-(4,4-difluoroazepan-1-yl)-4-methyl-N-(3-(S-methylsulfonimidoyl)phenyl)-5-(oxazol-5-yl)nicotinamide]
[1]
  pIC50: 7.30 to 8.30
[2]
  pIC50: 7.30 to 8.30

## Cc1c(C(F)(F)F)nnc(N2CCCC(F)(F)CC2)c1C(=O)Nc1cccc([S@@](C)(=O)=NC(=O)[C@H](C)O)c1 [Example 233, 3-(4,4-difluoroazepan-1-yl)-N-(3-((R)-N-((S)-2-hydroxypropanoyl)-S-methylsulfonimidoyl)phenyl)-5-methyl-6-(trifluoromethyl)pyridazine-4-carboxamide]
[1]
  pIC50: ≥ 8.30
[2]
  pIC50: ≥ 8.30

## Cc1c(C(F)(F)F)cnc(N2CCCC(F)(F)CC2)c1C(=O)Nc1cccc([S@@](C)(=O)=NC(=O)[C@H](C)O)c1 [Example 192, 2-(4,4-difluoroazepan-1-yl)-N-(3-((R)-N-((S)-2-hydroxypropanoyl)-S-methylsulfonimidoyl)phenyl)-4-methyl-5-(trifluoromethyl)nicotinamide]
[1]
  pIC50: ≥ 8.30
[2]
  pIC50: ≥ 8.30

## Cc1c(C(F)(F)F)nnc(N2CCCC(F)(F)CC2)c1C(=O)Nc1cccc(S(C)(=N)=N)c1 [Example 120, 3-(4,4-difluoroazepan-1-yl)-N-{3-[diimino(methyl)-λ^6-sulfanyl]phenyl}-5-methyl-6-(trifluoromethyl)pyridazine-4-carboxamide]
[1]
  pIC50: 7.00 to 7.30
[2]
  pIC50: 6.70 to 7.00

## Cc1nc(-c2cnn(C)c2)nc(N2CCCC(F)(F)CC2)c1C(=O)Nc1cccc([S@](C)(=N)=O)c1 [Example 150, (R)-4-(4,4-difluoroazepan-1-yl)-6-methyl-2-(1-methyl-1H-pyrazol-4-yl)-N-(3-(S-methylsulfonimidoyl)phenyl)pyrimidine-5-carboxamide]
[1]
  pIC50: 6.70 to 7.00
[2]
  pIC50: 6.70 to 7.00

## Cc1ncc(-c2cnc(N3CCCC(F)(F)CC3)c(C(=O)Nc3cccc([S@](C)(=N)=O)c3)c2C)o1 [Example 178, (R)-2-(4,4-difluoroazepan-1-yl)-4-methyl-5-(2-methyloxazol-5-yl)-N-(3-(S-methylsulfonimidoyl)phenyl)nicotinamide]
[1]
  pIC50: 7.30 to 8.30
[2]
  pIC50: 7.30 to 8.30

## Cc1c(-c2cnn(C)c2)cnc(N2CCCC(F)(F)CC2)c1C(=O)Nc1cccc([S@@](C)(=O)=NC(=O)C(N)C(F)(F)F)c1 (stereo partly drawn) [Example 174, N-(3-((R)-N-(2-amino-3,3,3-trifluoropropanoyl)-S-methylsulfonimidoyl)phenyl)-2-(4,4-difluoroazepan-1-yl)-4-methyl-5-(1-methyl-1H-pyrazol-4-yl)nicotinamide]
[1]
  pIC50: 7.30 to 8.30
[2]
  pIC50: 7.30 to 8.30

## CNCC(=O)N=[S@](C)(=O)c1cccc(NC(=O)c2c(N3CCCC(F)(F)CC3)nnc(C(F)(F)F)c2C)c1 [Example 43, (R)-3-(4,4-difluoroazepan-1-yl)-5-methyl-N-(3-(S-methyl-N-(methylglycyl)sulfonimidoyl)phenyl)-6-(trifluoromethyl)pyridazine-4-carboxamide]
[1]
  pIC50: ≥ 8.30
[2]
  pIC50: ≥ 8.30

## Cc1c(-c2ccccc2F)cnc(N2CCCC(F)(F)CC2)c1C(=O)Nc1cccc(S(C)(=N)=O)c1 (centres unmarked) [Example 92, 2-(4,4-difluoroazepan-1-yl)-5-(2-fluorophenyl)-4-methyl-N-(3-(S-methylsulfonimidoyl)phenyl)nicotinamide]
[1]
  pIC50: ≥ 8.30
[2]
  pIC50: ≥ 8.30

## Cc1c(-c2ccccc2)cnc(N2CCCC(F)(F)CC2)c1C(=O)Nc1cccc(S(C)(=N)=O)c1 (centres unmarked) [Example 42, 2-(4,4-Difluoroazepan-1-yl)-4-methyl-N-(3-(S-methylsulfonimidoyl)phenyl)-5-phenylnicotinamide]
[1]
  pIC50: ≥ 8.30
[2]
  pIC50: ≥ 8.30

## Cc1c(Cl)c(-c2cnn(C)c2)nc(N2CCCC(F)(F)CC2)c1C(=O)Nc1cccc([S@](C)(=N)=O)c1 [Example 162, (R)-5-chloro-2-(4,4-difluoroazepan-1-yl)-4-methyl-6-(1-methyl-1H-pyrazol-4-yl)-N-(3-(S-methylsulfonimidoyl)phenyl)nicotinamide]
[1]
  pIC50: ≥ 8.30
[2]
  pIC50: ≥ 8.30

## Cc1c(-c2ccc(F)cn2)cnc(N2CCCC(F)(F)CC2)c1C(=O)Nc1cccc(S(C)(=N)=O)c1 (centres unmarked) [Example 112, 6(4,4-difluoroazepan-1-yl)-5-fluoro-4methyl-N-(3-(S-methylsulfonimidoyl)phenyl)-[2,3bipyridine]-5carboxamide]
[1]
  pIC50: 7.00 to 7.30
[2]
  pIC50: 7.00 to 7.30

## C[S@@](=N)(=O)c1cc(NC(=O)c2cc(Cl)c(C(F)(F)F)cc2N2CCO[C@H](C(F)(F)F)C2)ccn1 [Example 218, 5-chloro-N-(2-((R)—S-methylsulfonimidoyl)pyridin-4-yl)-4-(trifluoromethyl)-2-((S)-2-(trifluoromethyl)morpholino)benzamide]
[1]
  pIC50: 7.30 to 8.30
[2]
  pIC50: 7.30 to 8.30

## Cc1cc(-c2cnn(C)c2)nc(N2CCCC(F)(F)CC2)c1C(=O)Nc1cccc([S@](C)(=N)=O)c1 [Example 151, (R)-2-(4,4-difluoroazepan-1-yl)-4-methyl-6-(1-methyl-1H-pyrazol-4-yl)-N-(3-(S-methylsulfonimidoyl)phenyl)nicotinamide]
[1]
  pIC50: 6.70 to 7.00
[2]
  pIC50: 6.70 to 7.00

## Cc1c(-c2ccc(C(F)F)cc2)nnc(N2CCCC(F)(F)CC2)c1C(=O)Nc1cccc([S@](C)(=N)=O)c1 [Example 167, (R)-3-(4,4-difluoroazepan-1-yl)-6-(4-(difluoromethyl)phenyl)-5-methyl-N-(3-(S-methylsulfonimidoyl)phenyl)pyridazine-4-carboxamide]
[1]
  pIC50: 7.30 to 8.30
[2]
  pIC50: 7.30 to 8.30

## Cc1c(-c2cccc(F)c2)cnc(N2CCCC(F)(F)CC2)c1C(=O)Nc1cccc([S@](C)(=N)=O)c1 [Example 110, (R)-2-(4,4-difluoroazepan-1-yl)-5-(3-fluorophenyl)-4-methyl-N-(3-(S-methylsulfonimidoyl)phenyl)nicotinamide]
[1]
  pIC50: ≥ 8.30
[2]
  pIC50: ≥ 8.30

## Cc1nc(N2CCCC(F)(F)CC2)c(C(=O)Nc2cccc(S(=N)(N)=O)c2)cc1C(F)(F)F (centres unmarked) [Example 121, 2-(4,4-difluoroazepan-1-yl)-6-methyl-N-(3-sulfamidimidoylphenyl)-5-(trifluoromethyl)nicotinamide]
[1]
  pIC50: ≥ 8.30
[2]
  pIC50: ≥ 8.30

## CNCC(=O)N=[S@](C)(=O)c1cccc(NC(=O)c2c(N3CCCC(F)(F)CC3)ncc(-c3cnn(C4CC4)c3)c2C)c1 [Example 70, (R)-5-(1-cyclopropyl-1H-pyrazol-4-yl)-2-(4,4-difluoroazepan-1-yl)-4-methyl-N-(3-(S-methyl-N-(methylglycyl)sulfonimidoyl)phenyl)nicotinamide]
[1]
  pIC50: ≥ 8.30
[2]
  pIC50: ≥ 8.30

## Cc1c(-c2cn[nH]c2)cnc(N2CCCC(F)(F)CC2)c1C(=O)Nc1cccc([S@](C)(=N)=O)c1 [Example 144, (R)-2-(4,4-difluoroazepan-1-yl)-4-methyl-N-(3-(S-methylsulfonimidoyl)phenyl)-5-(1H-pyrazol-4-yl)nicotinamide]
[1]
  pIC50: < 6.70
[2]
  pIC50: < 6.70

## C[S@@](=N)(=O)c1cc(NC(=O)c2cc(Cl)c(C(F)(F)F)cc2N2CCCC(F)(F)CC2)ccn1 [Example 199, (R)-5-chloro-2-(4,4-difluoroazepan-1-yl)-N-(2-(S-methylsulfonimidoyl)pyridin-4-yl)-4-(trifluoromethyl)benzamide]
[1]
  pIC50: ≥ 8.30
[2]
  pIC50: ≥ 8.30

## Cc1c(-c2cnn(C)c2)cnc(N2CCCC(F)(F)CC2)c1C(=O)NC12CC(C(N)=O)(C1)C2 [Example 132, N-(3-carbamoylbicyclo[1.1.1]pentan-1-yl)-2-(4,4-difluoroazepan-1-yl)-4-methyl-5-(1-methyl-1H-pyrazol-4-yl)nicotinamide]
[1]
  pIC50: < 6.70
[2]
  pIC50: < 6.70

## Cc1c(C(F)(F)F)nnc(N2CCCC(F)(F)CC2)c1C(=O)Nc1cccc([S@@](C)(=O)=NC(=O)CN)c1 [Example 177, (R)-3-(4,4-difluoroazepan-1-yl)-N-(3-(N-glycyl-S-methylsulfonimidoyl)phenyl)-5-methyl-6-(trifluoromethyl)pyridazine-4-carboxamide]
[1]
  pIC50: ≥ 8.30
[2]
  pIC50: ≥ 8.30

## Cc1c(Cl)c(-c2cnn(C)c2)nc(N2CCCC(F)(F)CC2)c1C(=O)Nc1ccnc([S@](C)(=N)=O)c1 [Example 212, (R)-5-chloro-2-(4,4-difluoroazepan-1-yl)-4-methyl-6-(1-methyl-1H-pyrazol-4-yl)-N-(2-(S-methylsulfonimidoyl)pyridin-4-yl)nicotinamide]
[1]
  pIC50: 7.30 to 8.30
[2]
  pIC50: 7.30 to 8.30

## C=CCCc1ccc(C(=O)Nc2cccc([S@@](C)(=N)=O)c2)c(N2CCCC(F)(F)CC2)n1 [Example 30, (S)-6-(3-Buten-1-yl)-2-(4,4-difluoroazepan-1-yl)-N-(3-(S-methylsulfonimidoyl)phenyl)nicotinamide]
[1]
  pIC50: ≥ 8.30
[2]
  pIC50: ≥ 8.30

## Cc1c(C#N)c(C(F)(F)F)nc(N2CCCC(F)(F)CC2)c1C(=O)Nc1cccc([S@](C)(=N)=O)c1 [Example 56, (R)-5-cyano-2-(4,4-difluoroazepan-1-yl)-4-methyl-N-(3-(S-methylsulfonimidoyl)phenyl)-6-(trifluoromethyl)nicotinamide]
[1]
  pIC50: ≥ 8.30
[2]
  pIC50: ≥ 8.30

## Cc1c(C(=O)Nc2cccc([S@@](C)(=O)=NC(=O)[C@@H]3CCCN3)c2)c(N2CCCC(F)(F)CC2)nc(C(F)(F)F)c1-c1cnn(C)c1 [Example 190, N-(3-((R)-N-(L-prolyl)-S-methylsulfonimidoyl)phenyl)-2-(4,4-difluoroazepan-1-yl)-4-methyl-5-(1-methyl-1H-pyrazol-4-yl)-6-(trifluoromethyl)nicotinamide]
[1]
  pIC50: ≥ 8.30
[2]
  pIC50: ≥ 8.30

## Cc1c(-c2cnn(C)c2)cnc(N2CCCC(F)(F)CC2)c1C(=O)Nc1cccc([S@@](C)(=O)=NC(=O)CO)c1 [Example 229, (R)-2-(4,4-difluoroazepan-1-yl)-N-(3-(N-(2-hydroxyacetyl)-S-methylsulfonimidoyl)phenyl)-4-methyl-5-(1-methyl-1H-pyrazol-4-yl)nicotinamide]
[1]
  pIC50: 7.30 to 8.30
[2]
  pIC50: 7.30 to 8.30
